These results are taken from ChEMBL document CHEMBL1909046, “DrugMatrix in vitro pharmacology data”.

SMILES strings stand for the structures.

Sequence of Receptor tyrosine-protein kinase erbB-2 (P04626 whole entry): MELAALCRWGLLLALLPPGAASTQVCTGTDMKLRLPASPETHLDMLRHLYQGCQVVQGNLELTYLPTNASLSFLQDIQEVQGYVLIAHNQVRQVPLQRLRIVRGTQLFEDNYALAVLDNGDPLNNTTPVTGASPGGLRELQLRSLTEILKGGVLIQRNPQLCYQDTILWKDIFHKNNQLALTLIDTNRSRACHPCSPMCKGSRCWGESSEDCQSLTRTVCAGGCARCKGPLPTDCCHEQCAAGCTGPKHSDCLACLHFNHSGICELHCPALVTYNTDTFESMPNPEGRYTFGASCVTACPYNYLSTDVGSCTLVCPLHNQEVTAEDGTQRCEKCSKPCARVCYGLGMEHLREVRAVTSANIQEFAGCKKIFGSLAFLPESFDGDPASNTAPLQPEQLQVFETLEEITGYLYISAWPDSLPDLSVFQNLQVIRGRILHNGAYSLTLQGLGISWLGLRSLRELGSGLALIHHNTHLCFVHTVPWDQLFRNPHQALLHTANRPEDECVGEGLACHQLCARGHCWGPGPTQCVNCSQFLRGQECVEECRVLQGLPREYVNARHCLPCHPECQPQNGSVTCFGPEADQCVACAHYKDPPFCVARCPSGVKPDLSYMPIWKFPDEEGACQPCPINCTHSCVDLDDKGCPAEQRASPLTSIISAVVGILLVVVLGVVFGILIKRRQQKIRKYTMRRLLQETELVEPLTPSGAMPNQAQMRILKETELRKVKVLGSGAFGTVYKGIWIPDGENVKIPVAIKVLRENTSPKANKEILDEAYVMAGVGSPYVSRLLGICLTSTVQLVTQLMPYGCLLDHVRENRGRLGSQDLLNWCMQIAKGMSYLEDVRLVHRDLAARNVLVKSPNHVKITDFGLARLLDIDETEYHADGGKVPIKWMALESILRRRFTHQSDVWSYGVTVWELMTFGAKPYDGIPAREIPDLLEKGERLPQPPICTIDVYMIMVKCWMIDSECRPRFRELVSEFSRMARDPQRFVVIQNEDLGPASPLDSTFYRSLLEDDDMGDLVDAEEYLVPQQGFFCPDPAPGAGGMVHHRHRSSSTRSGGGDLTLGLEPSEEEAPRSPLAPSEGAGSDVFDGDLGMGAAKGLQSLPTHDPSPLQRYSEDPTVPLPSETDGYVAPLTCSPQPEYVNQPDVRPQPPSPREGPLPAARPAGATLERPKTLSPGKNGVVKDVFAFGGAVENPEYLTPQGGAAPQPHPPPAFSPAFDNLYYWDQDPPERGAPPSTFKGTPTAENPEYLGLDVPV

One experiment deals with Tyrosine-protein kinase Fyn (Homo sapiens, UniProt P06241). Put plainly: biochemical. As to conditions: insect cells. In kind it is cell-based, Insect cells.
Sequence of Tyrosine-protein kinase Fyn (P06241 whole entry): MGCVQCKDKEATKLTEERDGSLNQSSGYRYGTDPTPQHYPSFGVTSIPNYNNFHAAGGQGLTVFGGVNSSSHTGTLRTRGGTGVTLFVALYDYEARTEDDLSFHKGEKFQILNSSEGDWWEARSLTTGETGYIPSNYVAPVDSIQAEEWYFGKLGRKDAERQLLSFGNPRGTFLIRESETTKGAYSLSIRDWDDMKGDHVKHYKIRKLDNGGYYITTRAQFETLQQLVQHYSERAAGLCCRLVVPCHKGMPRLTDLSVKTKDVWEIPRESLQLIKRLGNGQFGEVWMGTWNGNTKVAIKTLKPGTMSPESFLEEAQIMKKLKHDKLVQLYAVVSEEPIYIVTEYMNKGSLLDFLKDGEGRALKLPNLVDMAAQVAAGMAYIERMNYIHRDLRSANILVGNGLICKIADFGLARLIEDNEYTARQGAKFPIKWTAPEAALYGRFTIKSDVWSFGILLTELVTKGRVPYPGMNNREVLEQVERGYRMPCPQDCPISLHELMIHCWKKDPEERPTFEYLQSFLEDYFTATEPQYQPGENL
Regarding `COc1ccc(CCN(C)CCCC(C#N)(c2ccc(OC)c(OC)c2)C(C)C)cc1OC` (stereo not drawn), the IC50 entry is listed as “Not Active”.
Still for that read-out and setting: the result for `CC(C)Cc1ccc([C@@H](C)C(=O)O)cc1` [(R)-IBUPROPHEN] reads “Not Active”; that for `CN(C)CCOC(c1ccccc1)c1ccccc1` [DIPHENHYDRAMINE], “Not Active”; that for `Fc1ccc(C(c2ccc(F)cc2)N2CCN(C/C=C/c3ccccc3)CC2)cc1` [FLUNARIZINE], “Not Active”.
Turning to `CNCCC(Oc1ccc(C(F)(F)F)cc1)c1ccccc1` (stereo not drawn) [FLUOXETINE], the IC50 result is “Not Active”.
`CC(C)Oc1ccc2c(=O)c(-c3ccccc3)coc2c1` [IPRIFLAVONE]: the IC50 entry was “Not Active”.

The target in a further experiment is T1, 3-hydroxy-3-methylglutaryl-coenzyme A reductase (Homo sapiens, UniProt P04035).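 Note: enzyme inhibition assay of HMG-CoA reductase using radiolabeled [14C]HMG-CoA as substrate; in other assays of this panel Not Active means under 50% inhibition at 10 µM.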
T1 sequence (P04035 whole entry): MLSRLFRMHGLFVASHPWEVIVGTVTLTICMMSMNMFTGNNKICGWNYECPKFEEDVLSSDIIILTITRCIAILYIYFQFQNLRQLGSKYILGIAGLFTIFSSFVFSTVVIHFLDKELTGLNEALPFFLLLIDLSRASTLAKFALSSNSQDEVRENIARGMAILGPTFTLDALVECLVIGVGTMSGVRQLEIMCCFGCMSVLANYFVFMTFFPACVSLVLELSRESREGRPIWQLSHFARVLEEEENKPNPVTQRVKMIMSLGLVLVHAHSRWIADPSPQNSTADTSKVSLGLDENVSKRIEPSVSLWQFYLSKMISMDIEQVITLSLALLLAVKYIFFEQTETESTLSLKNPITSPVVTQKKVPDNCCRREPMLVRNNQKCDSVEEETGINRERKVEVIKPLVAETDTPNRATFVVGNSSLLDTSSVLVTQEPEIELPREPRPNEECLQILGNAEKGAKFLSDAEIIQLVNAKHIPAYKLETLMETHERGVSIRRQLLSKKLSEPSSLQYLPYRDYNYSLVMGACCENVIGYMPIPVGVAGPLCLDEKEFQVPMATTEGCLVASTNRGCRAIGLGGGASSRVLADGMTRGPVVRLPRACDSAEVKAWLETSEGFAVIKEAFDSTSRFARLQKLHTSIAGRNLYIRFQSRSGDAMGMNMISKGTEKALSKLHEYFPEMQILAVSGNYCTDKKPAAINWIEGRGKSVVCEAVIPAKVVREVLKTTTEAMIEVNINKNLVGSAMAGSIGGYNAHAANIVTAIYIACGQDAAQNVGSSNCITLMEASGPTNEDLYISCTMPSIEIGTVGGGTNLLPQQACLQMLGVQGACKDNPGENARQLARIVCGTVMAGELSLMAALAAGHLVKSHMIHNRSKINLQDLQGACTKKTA
Assay: not given
Details: not given
On the set-up: species or system Escherichia coli.
For `COc1ccc(CCN(C)CCCC(C#N)(c2ccc(OC)c(OC)c2)C(C)C)cc1OC` (stereo not drawn), the IC50 entry is “Not Active”.
As to `CC(C)Cc1ccc([C@@H](C)C(=O)O)cc1` [(R)-IBUPROPHEN], the half-inhibitory concentration (IC50) entry is recorded as “Not Active”.
The same measure, in the same setting: the result for `CN(C)CCOC(c1ccccc1)c1ccccc1` [DIPHENHYDRAMINE] reads “Not Active”.
Same read-out and setting: the result for `Fc1ccc(C(c2ccc(F)cc2)N2CCN(C/C=C/c3ccccc3)CC2)cc1` [FLUNARIZINE] reads “Not Active”; that for `CNCCC(Oc1ccc(C(F)(F)F)cc1)c1ccccc1` (stereo not drawn) [FLUOXETINE], “Not Active”.
As for `CC(C)Oc1ccc2c(=O)c(-c3ccccc3)coc2c1` [IPRIFLAVONE], the IC50 entry is “Not Active”.

A further experiment has as its target Receptor tyrosine-protein kinase erbB-2 (Homo sapiens, UniProt P04626). Briefly: biochemical. The experiment is classed as cell-based, Insect cells. As to conditions: insect cells.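 Note: inhibition of HER2 kinase enzyme activity, measured with Poly(Glu:Tyr) as the phosphorylation substrate; in other assays of this panel Not Active means under 50% inhibition at 10 µM.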
As to `COc1ccc(CCN(C)CCCC(C#N)(c2ccc(OC)c(OC)c2)C(C)C)cc1OC` (stereo not drawn), the IC50 entry is on record as “Not Active”.
As for `CC(C)Cc1ccc([C@@H](C)C(=O)O)cc1` [(R)-IBUPROPHEN], the IC50 result is recorded as “Not Active”.
Turning to `CN(C)CCOC(c1ccccc1)c1ccccc1` [DIPHENHYDRAMINE], the half-inhibitory concentration (IC50) entry was “Not Active”.
On the same count and under the same terms, the same measure for `Fc1ccc(C(c2ccc(F)cc2)N2CCN(C/C=C/c3ccccc3)CC2)cc1` [FLUNARIZINE]: “Not Active”; for `CNCCC(Oc1ccc(C(F)(F)F)cc1)c1ccccc1` (stereo not drawn) [FLUOXETINE]: “Not Active”.
The same measure, in the same setting: the result for `CC(C)Oc1ccc2c(=O)c(-c3ccccc3)coc2c1` [IPRIFLAVONE] reads “Not Active”.

In another experiment the target is Platelet-activating factor receptor (Homo sapiens, UniProt P25105). Note: in other assays of this panel Not Active means under 50% inhibition at 10 µM.
Sequence of Platelet-activating factor receptor (P25105 whole entry): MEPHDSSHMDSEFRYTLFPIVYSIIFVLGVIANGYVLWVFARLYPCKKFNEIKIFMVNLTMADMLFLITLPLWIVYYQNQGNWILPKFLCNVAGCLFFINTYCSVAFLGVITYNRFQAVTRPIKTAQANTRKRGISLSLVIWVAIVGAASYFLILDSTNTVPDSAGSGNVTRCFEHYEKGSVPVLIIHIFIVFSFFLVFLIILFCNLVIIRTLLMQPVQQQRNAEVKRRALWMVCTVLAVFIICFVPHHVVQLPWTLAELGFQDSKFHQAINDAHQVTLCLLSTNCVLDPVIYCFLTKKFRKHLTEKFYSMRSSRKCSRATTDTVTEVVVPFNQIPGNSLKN
Assay: not given
The experiment is classed as tissue-based.
Details: not given
With `COc1ccc(CCN(C)CCCC(C#N)(c2ccc(OC)c(OC)c2)C(C)C)cc1OC` (stereo not drawn), the IC50 entry was “Not Active”.
Still for that read-out and setting: the same measure for `CC(C)Cc1ccc([C@@H](C)C(=O)O)cc1` [(R)-IBUPROPHEN]: “Not Active”; for `CN(C)CCOC(c1ccccc1)c1ccccc1` [DIPHENHYDRAMINE]: “Not Active”; for `Fc1ccc(C(c2ccc(F)cc2)N2CCN(C/C=C/c3ccccc3)CC2)cc1` [FLUNARIZINE]: “Not Active”.
Take `CNCCC(Oc1ccc(C(F)(F)F)cc1)c1ccccc1` (stereo not drawn) [FLUOXETINE]: the 50% inhibitory concentration (IC50) entry was “Not Active”.
Consider `CC(C)Oc1ccc2c(=O)c(-c3ccccc3)coc2c1` [IPRIFLAVONE], for which the IC50 entry is recorded as “Not Active”.

For the next experiment, the target named is T2, Alpha-2C adrenergic receptor (Homo sapiens, UniProt P18825).
T2 sequence (P18825 whole entry): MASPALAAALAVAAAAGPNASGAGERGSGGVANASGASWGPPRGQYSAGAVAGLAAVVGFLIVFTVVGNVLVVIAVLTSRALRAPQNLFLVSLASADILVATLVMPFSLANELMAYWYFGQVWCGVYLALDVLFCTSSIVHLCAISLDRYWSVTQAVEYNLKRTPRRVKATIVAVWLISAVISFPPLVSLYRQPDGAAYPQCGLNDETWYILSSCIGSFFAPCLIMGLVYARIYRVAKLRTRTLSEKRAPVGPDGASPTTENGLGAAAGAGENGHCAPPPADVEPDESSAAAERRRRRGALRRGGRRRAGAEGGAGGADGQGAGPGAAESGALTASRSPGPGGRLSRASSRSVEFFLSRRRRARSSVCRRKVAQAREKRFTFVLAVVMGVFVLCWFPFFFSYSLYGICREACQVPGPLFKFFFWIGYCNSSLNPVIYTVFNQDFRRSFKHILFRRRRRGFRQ
Briefly: DRUGMATRIX: Adrenergic Alpha-2C radioligand binding (ligand: [3H] MK-912). For IC50: call rule not given here. The experiment is classed as cell membranes, Sf9, Membrane. As to conditions: read-out: IC50.
On to `Fc1ccc(C(c2ccc(F)cc2)N2CCN(C/C=C/c3ccccc3)CC2)cc1` [FLUNARIZINE], for which the IC50 came out at 0.222 µM.

The same experiment, now with this note: read-out: Ki.
With `Fc1ccc(C(c2ccc(F)cc2)N2CCN(C/C=C/c3ccccc3)CC2)cc1` [FLUNARIZINE], the Ki was determined as 0.032 µM.

The experiment is the same for the next values; noted with them: sf9.
`COc1ccc(CCN(C)CCCC(C#N)(c2ccc(OC)c(OC)c2)C(C)C)cc1OC` (stereo not drawn): the IC50 entry was “Not Active”.
As for `CC(C)Cc1ccc([C@@H](C)C(=O)O)cc1` [(R)-IBUPROPHEN], the IC50 entry was “Not Active”.
On the same count and under the same terms, the same measure for `CN(C)CCOC(c1ccccc1)c1ccccc1` [DIPHENHYDRAMINE]: “Not Active”; for `CNCCC(Oc1ccc(C(F)(F)F)cc1)c1ccccc1` (stereo not drawn) [FLUOXETINE]: “Not Active”; for `CC(C)Oc1ccc2c(=O)c(-c3ccccc3)coc2c1` [IPRIFLAVONE]: “Not Active”.

The target of a further experiment is Glycine receptor (Rattus norvegicus, UniProt P22771+P24524+P07727+P20781). Note: in other assays of this panel Not Active means under 50% inhibition at 10 µM.
Assay: not given
In kind it is cell membranes, Wistar, Spinal cord, Membrane.
Details: not given
`COc1ccc(CCN(C)CCCC(C#N)(c2ccc(OC)c(OC)c2)C(C)C)cc1OC` (stereo not drawn): the IC50 result is “Not Active”.
On to `CC(C)Cc1ccc([C@@H](C)C(=O)O)cc1` [(R)-IBUPROPHEN], for which the IC50 entry is on record as “Not Active”.
On the same count and under the same terms, the result for `CN(C)CCOC(c1ccccc1)c1ccccc1` [DIPHENHYDRAMINE] reads “Not Active”; that for `Fc1ccc(C(c2ccc(F)cc2)N2CCN(C/C=C/c3ccccc3)CC2)cc1` [FLUNARIZINE], “Not Active”.
On to `CNCCC(Oc1ccc(C(F)(F)F)cc1)c1ccccc1` (stereo not drawn) [FLUOXETINE], for which the concentration for half-maximal inhibition (IC50) result is given as “Not Active”.
The same measure, in the same setting: the same measure for `CC(C)Oc1ccc2c(=O)c(-c3ccccc3)coc2c1` [IPRIFLAVONE]: “Not Active”.

Another experiment deals with T3, Type-2 angiotensin II receptor (Homo sapiens, UniProt P50052).
T3 sequence (P50052 whole entry): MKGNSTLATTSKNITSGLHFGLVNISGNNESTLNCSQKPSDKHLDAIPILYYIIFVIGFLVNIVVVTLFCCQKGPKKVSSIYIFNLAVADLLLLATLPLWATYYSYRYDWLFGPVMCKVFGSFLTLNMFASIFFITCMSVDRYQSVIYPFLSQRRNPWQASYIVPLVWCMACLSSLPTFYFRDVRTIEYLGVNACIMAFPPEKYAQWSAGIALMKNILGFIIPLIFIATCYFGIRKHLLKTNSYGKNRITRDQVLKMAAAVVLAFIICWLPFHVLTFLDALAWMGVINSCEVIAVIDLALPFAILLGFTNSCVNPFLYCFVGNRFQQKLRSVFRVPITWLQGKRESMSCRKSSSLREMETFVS
Assay: not given
As to conditions: cho-k1. The experiment is classed as cell-based.
Regarding `COc1ccc(CCN(C)CCCC(C#N)(c2ccc(OC)c(OC)c2)C(C)C)cc1OC` (stereo not drawn), the half-maximal inhibitory concentration (IC50) entry is “Not Active”.
Take `CC(C)Cc1ccc([C@@H](C)C(=O)O)cc1` [(R)-IBUPROPHEN]: the concentration for half-maximal inhibition (IC50) result is recorded as “Not Active”.
On the same count and under the same terms, the result for `CN(C)CCOC(c1ccccc1)c1ccccc1` [DIPHENHYDRAMINE] reads “Not Active”; that for `Fc1ccc(C(c2ccc(F)cc2)N2CCN(C/C=C/c3ccccc3)CC2)cc1` [FLUNARIZINE], “Not Active”.
With `CNCCC(Oc1ccc(C(F)(F)F)cc1)c1ccccc1` (stereo not drawn) [FLUOXETINE], the half-maximal inhibitory concentration (IC50) entry was “Not Active”.
For `CC(C)Oc1ccc2c(=O)c(-c3ccccc3)coc2c1` [IPRIFLAVONE], the half-maximal inhibitory concentration (IC50) entry is reported as “Not Active”.

The IC50 is the concentration needed to halve the response being measured. As usually defined, the Ki is a measure of affinity in units of concentration, obtained from inhibition or displacement.
